The assay deals with T1, human TLR7 (Homo sapiens, UniProt Q9NYK1).
T1 construct: host or cells: HEK-Blue cells
T1 sequence (Q9NYK1 27-1049): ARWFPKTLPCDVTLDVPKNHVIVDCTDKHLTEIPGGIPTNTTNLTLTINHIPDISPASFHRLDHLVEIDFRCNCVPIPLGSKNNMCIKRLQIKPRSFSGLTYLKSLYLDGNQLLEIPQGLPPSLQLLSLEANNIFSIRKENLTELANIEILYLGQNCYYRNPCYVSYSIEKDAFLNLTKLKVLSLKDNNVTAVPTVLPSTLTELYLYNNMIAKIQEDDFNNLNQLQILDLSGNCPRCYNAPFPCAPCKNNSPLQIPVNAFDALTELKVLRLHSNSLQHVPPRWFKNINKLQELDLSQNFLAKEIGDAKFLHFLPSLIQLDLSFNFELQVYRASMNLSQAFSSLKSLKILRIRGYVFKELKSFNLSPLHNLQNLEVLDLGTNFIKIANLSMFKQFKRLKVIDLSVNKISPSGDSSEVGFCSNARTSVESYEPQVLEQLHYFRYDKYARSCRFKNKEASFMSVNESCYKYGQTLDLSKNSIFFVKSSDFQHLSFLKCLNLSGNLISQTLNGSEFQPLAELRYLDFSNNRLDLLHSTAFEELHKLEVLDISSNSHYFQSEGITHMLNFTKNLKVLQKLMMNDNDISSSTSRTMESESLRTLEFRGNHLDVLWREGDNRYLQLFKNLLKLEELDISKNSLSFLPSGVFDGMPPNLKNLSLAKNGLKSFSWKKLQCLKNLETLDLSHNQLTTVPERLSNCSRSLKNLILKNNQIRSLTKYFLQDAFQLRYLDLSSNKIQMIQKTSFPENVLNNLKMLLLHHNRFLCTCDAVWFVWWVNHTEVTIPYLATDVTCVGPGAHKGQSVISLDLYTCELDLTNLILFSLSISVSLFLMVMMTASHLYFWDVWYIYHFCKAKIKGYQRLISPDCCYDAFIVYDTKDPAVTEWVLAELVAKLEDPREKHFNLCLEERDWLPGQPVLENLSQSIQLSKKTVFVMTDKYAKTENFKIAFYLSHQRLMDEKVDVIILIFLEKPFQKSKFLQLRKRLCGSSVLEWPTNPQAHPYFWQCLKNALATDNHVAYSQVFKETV
Nature of the assay: TLR7 inhibition reporter assay (HEK-Blue cells, SEAP reporter). It counts as cell-based. The following applies: HEK-Blue cells overexpressing human TLR7, stimulated with gardiquimod 7.5 μM, 22 hour incubation. Here is the method:
TLR7/8/9 Inhibition Reporter Assays
HEK-Blue™-cells (Invivogen) overexpressing human TLR7, TLR8 or TLR9 receptors were used for screening inhibitors of these receptors using an inducible SEAP (secreted embryonic alkaline phosphatase) reporter gene under the control of the IFN-β minimal promoter fused to five NF-κB and AP-1-binding sites. Briefly, cells are seeded into Greiner 384 well plates (15000 cells per well for TLR7, 20,000 for TLR8 and 25,000 for TLR9) and then treated with test compounds in DMSO to yield a final dose response concentration range of 0.05 nM-50 μM. After a 30 minute compound pre-treatment at room temperature, the cells are then stimulated with a TLR7 ligand (gardiquimod at a final concentration of 7.5 μM), TLR8 ligand (R848 at a final concentration of 15.9 μM) or TLR9 ligand (ODN2006 at a final concentration of 5 nM) to activate NF-κB and AP-1 which induce the production of SEAP. After a 22 hour incubation at 37° C., 5% CO2, SEAP levels are determined with the addition of HEK-Blue™ Detection reagent (Invivogen), a cell culture medium that allows for detection of SEAP, according to manufacturer's specifications. The percent inhibition is determined as the % reduction in the HEK-Blue signal present in wells treated with agonist plus DMSO alone compared to wells treated with a known inhibitor.
Background: Reporter assays use an easily measured gene product as a stand-in for the process of interest.

Molecules are shown by their SMILES.

`COc1ccc(-c2[nH]c3cnc(-c4ccc(N5CCN(C(C)C)CC5)cc4)cc3c2C)cc1OC` [Example 1, 2-(3,4-Dimethoxyphenyl)-5-(4-(4-isopropylpiperazin-1-yl)phenyl)-3-methyl-1H-pyrrolo[2,3-c]pyridine] yielded an IC50 of 1.7 µM.

The compound `COc1ccc(-c2c(C)[nH]c3cnc(-c4ccc(N5CCN(C(C)C)CC5)cc4)cc23)cc1OC` [Example 2, 3-(3,4-dimethoxyphenyl)-5-(4-(4-isopropylpiperazin-1-yl)phenyl)-2-methyl-1H-pyrrolo[2,3-c]pyridine] yielded an IC50 of 2.7 µM.

Compound `COc1ccc(-c2c(C)n(C)c3cnc(-c4ccc(N5CCN(CC(C)(C)O)CC5)cc4)cc23)cc1OC` [Example 3, 1-(4-(4-(3-(3,4-Dimethoxyphenyl)-1,2-dimethyl-1H-pyrrolo[2,3-c]pyridin-5-yl)phenyl)piperazin-1-yl)-2-methylpropan-2-ol] returned an IC50 of 3.3 µM.

`COc1ccc(-c2c(C)[nH]c3cnc(C4CCN(C5CCN(C(=O)OCc6ccccc6)CC5)CC4)cc23)cc1OC` [Example 4, Benzyl 4-(3-(3,4-dimethoxyphenyl)-2-methyl-1H-pyrrolo[2,3-c]pyridin-5-yl)-[1,4′-bipiperidine]-1′-carboxylate] registered an IC50 of 9.5 µM.

`COc1ccc(-c2c(C)[nH]c3cnc(C4CCN(C(=O)C5CCN(C6CC6)CC5)CC4)cc23)cc1OC` [Example 5, (1-Cyclopropylpiperidin-4-yl)(4-(3-(3,4-dimethoxyphenyl)-2-methyl-1H-pyrrolo[2,3-c]pyridin-5-yl)piperidin-1-yl)methanone] yielded an IC50 of 8.2 µM.

`COc1ccc(-c2c(C)[nH]c3cnc(C4CCN(c5cc(C)nc(C)c5)CC4)cc23)cc1OC` [Example 6, 3-(3,4-Dimethoxyphenyl)-5-(1-(2,6-dimethylpyridin-4-yl)piperidin-4-yl)-2-methyl-1H-pyrrolo[2,3-c]pyridine] came in with an IC50 of 8 µM.

Consider `COc1ccc(-c2cc3cnc(-c4ccc(N5CCN(CC6CC6)CC5)cc4)cc3n2C)cc1OC` [Example 9, 6-(4-(4-(Cyclopropylmethyl)piperazin-1-yl)phenyl)-2-(3,4-dimethoxyphenyl)-1-methyl-1H-pyrrolo[3,2-c]pyridine], for which the IC50 stood at 2.9 µM.

In turn, `COc1ccc(-c2cc3cnc(-c4ccc(N5CCN(C6CCC6)CC5)cc4)cc3n2C)cc1OC` [Example 10, 6-(4-(4-Cyclobutylpiperazin-1-yl)phenyl)-2-(3,4-dimethoxyphenyl)-1-methyl-1H-pyrrolo[3,2-c]pyridine] showed an IC50 of 13.8 µM.

In turn, `COc1ccc(-c2c(C)c3cc(C4CCN(C5CCN(CC(C)C)CC5)CC4)ncc3n2C)cc1OC` [Example 13, 2-(3,4-dimethoxyphenyl)-5-(1′-isobutyl-[1,4′-bipiperidin]-4-yl)-1,3-dimethyl-1H-pyrrolo[2,3-c]pyridine] yielded an IC50 of 17.3 µM.

Compound `COc1ccc(-c2c(C)[nH]c3cnc(C4CCN(C5CCN(C(=O)c6ccccc6)CC5)CC4)cc23)cc1OC` [Example 14, (4-(3-(3,4-dimethoxyphenyl)-2-methyl-1H-pyrrolo[2,3-c]pyridin-5-yl)-[1,4′-bipiperidin]-1′-yl) (phenyl)methanone] came in with an IC50 of 8.2 µM.

The compound `COc1ccc(-c2c(C)[nH]c3cnc(C4CCN(C5CCN(C(=O)C(C)C)CC5)CC4)cc23)cc1OC` [Example 15, 1-(4-(3-(3,4-dimethoxyphenyl)-2-methyl-1H-pyrrolo[2,3-c]pyridin-5-yl)-[1,4′-bipiperidin]-1′-yl)-2-methylpropan-1-one] displayed an IC50 of 14 µM.

In the case of `COc1ccc(-c2c(C)[nH]c3cnc(C4CCN(C(=O)CN5CCCCC5)CC4)cc23)cc1OC` [Example 16, 1-(4-(3-(3,4-dimethoxyphenyl)-2-methyl-1H-pyrrolo[2,3-c]pyridin-5-yl)piperidin-1-yl)-2-(piperidin-1-yl)ethan-1-one], the IC50 was found to be 5.7 µM.

Compound `COc1ccc(-c2c(C)n(C)c3cnc(C4CCN(C5CCN(CC(C)C)CC5)CC4)cc23)cc1OC` [Example 17, 3-(3,4-dimethoxyphenyl)-5-(1′-isobutyl-[1,4′-bipiperidin]-4-yl)-1,2-dimethyl-1H-pyrrolo[2,3-c]pyridine] yielded an IC50 of 2.3 µM.

Regarding `COc1ccc(-c2c(C)n(C)c3cnc(C4CCN(C5CCN(C(=O)C(C)C)CC5)CC4)cc23)cc1OC` [Example 18, 1-(4-(3-(3,4-dimethoxyphenyl)-1,2-dimethyl-1H-pyrrolo[2,3-c]pyridin-5-yl)-[1,4′-bipiperidin]-1′-yl)-2-methylpropan-1-one], the 50% inhibitory concentration (IC50) is 13.6 µM.

As for `COc1ccc(-c2c(C)n(C)c3cnc(C4CCN(C5CCN(C(=O)c6ccccc6)CC5)CC4)cc23)cc1OC` [Example 19, (4-(3-(3,4-dimethoxyphenyl)-1,2-dimethyl-1H-pyrrolo[2,3-c]pyridin-5-yl)-[1,4′-bipiperidin]-1′-yl)(phenyl)methanone], the IC50 came out at 5.2 µM.

Compound `CCOC(=O)N1CCC(N2CCC(c3cc4c(-c5ccc(OC)c(OC)c5)c(C)n(C)c4cn3)CC2)CC1` [Example 20, ethyl 4-(3-(3,4-dimethoxyphenyl)-1,2-dimethyl-1H-pyrrolo[2,3-c]pyridin-5-yl)-[1,4′-bipiperidine]-1′-carboxylate] had an IC50 of 9.2 µM.

As for `COc1ccc(-c2c(C)[nH]c3cnc(C4CCN(C(=O)CN5CCCC5)CC4)cc23)cc1OC` [Example 21, 1-(4-(3-(3,4-dimethoxyphenyl)-2-methyl-1H-pyrrolo[2,3-c]pyridin-5-yl)piperidin-1-yl)-2-(pyrrolidin-1-yl)ethan-1-one], the IC50 is 26 µM.

For the compound `COc1ccc(-c2c(C)[nH]c3cnc(C4CCN(C(=O)CN(C)C)CC4)cc23)cc1OC` [Example 22, 1-(4-(3-(3,4-dimethoxyphenyl)-2-methyl-1H-pyrrolo[2,3-c]pyridin-5-yl)piperidin-1-yl)-2-(dimethylamino)ethan-1-one], it took 9.7 µM to reach half-maximal inhibition (IC50).

As for `COc1ccc(-c2c(C)[nH]c3cnc(C4CCN(C(=O)CCN5CCCC5)CC4)cc23)cc1OC` [Example 23, 1-(4-(3-(3,4-dimethoxyphenyl)-2-methyl-1H-pyrrolo[2,3-c]pyridin-5-yl)piperidin-1-yl)-3-(pyrrolidin-1-yl)propan-1-one], the IC50 is greater than 50 µM.

As to `COc1ccc(-c2cc3cnc(-c4ccc(N5CCN(C(C)C)CC5)cc4)cc3n2C)cc1OC` [Example 24, 2-(3,4-dimethoxyphenyl)-6-(4-(4-isopropylpiperazin-1-yl)phenyl)-1-methyl-1H-pyrrolo[3,2-c]pyridine], the IC50 is 3.2 µM.

The compound `COc1ccc(-c2cc3cnc(C4CCN(C(=O)CN5CCCCC5)CC4)cc3n2C)cc1OC` [Example 25, 1-(4-(2-(3,4-dimethoxyphenyl)-1-methyl-1H-pyrrolo[3,2-c]pyridin-6-yl)piperidin-1-yl)-2-(piperidin-1-yl)ethan-1-one] registered an IC50 of 4.5 µM.

With `COc1ccc(-c2cc3cnc(C4CCN(C5CCN(C(=O)c6ccccc6)CC5)CC4)cc3n2C)cc1OC` [Example 26, (4-(2-(3,4-dimethoxyphenyl)-1-methyl-1H-pyrrolo[3,2-c]pyridin-6-yl)-[1,4′-bipiperidin]-1′-yl)(phenyl)methanone], 7.3 µM corresponded to half-maximal inhibition (IC50).

Compound `COc1ccc(-c2cc3cnc(-c4ccc(N5CCN(C)CC5)cc4)cc3n2C)cc1OC` [Example 27, 2-(3,4-dimethoxyphenyl)-1-methyl-6-(4-(4-methylpiperazin-1-yl)phenyl)-1H-pyrrolo[3,2-c]pyridine] returned an IC50 of 2.6 µM.

With `COc1ccc(-c2cc3cnc(C4CCN(Cc5ccc(C(F)(F)F)nc5)CC4)cc3n2C)cc1OC` [Example 28, 2-(3,4-dimethoxyphenyl)-1-methyl-6-(1-((6-(trifluoromethyl)pyridin-3-yl)methyl)piperidin-4-yl)-1H-pyrrolo[3,2-c]pyridine], the IC50 is greater than 50 µM.

As usually defined, the IC50 is the concentration that gives 50% inhibition.

The values above are taken from US12590091B2, “1H-pyrrolo[3,2-C]pyridine and 1H-pyrrolo[2,3-C]pyridine derivatives as TLR9 inhibitors for the treatment of fibrosis” (BRISTOL-MYERS SQUIBB COMPANY, priority 2020, dated 2026).
